Here are results for 13 molecules from patent publication US7589066B2, “Potent and specific immunoproteasome inhibitors” (The University of North Carolina at Chapel Hill, priority 2005, dated 2009).

Read-outs that look alike come from different tables or passages of the source. Square brackets hold non-standard residues; d marks the D form. Peptide text beside a SMILES is read from it. * marks the point of attachment. hPhe = N[CH](CCc1ccccc1)C(=O)O; Cbz = O=C(OCc1ccccc1)*

Assay [1] addresses T1, proteasome from pituitary tissue (X/Y/Z isoform, constitutive proteasome), chymotrypsin-like (ChT-L) activity (Bos taurus, UniProt Q32KL2).
T1 construct: the proteasome from pituitary tissue, representative of the X/Y/Z isoform; from tissue; host or cells: pituitary
As to the kind of experiment: Inhibition of ChT-L activity of pituitary proteasome (constitutive proteasome). The assay is classed as biochemical. Conditions: substrate Cbz-GGF-pAB; for IC50: read-out: IC50 instead of Ki (†), Pituitary Proteasome, ChT-L component; for Ki: Dixon plots, without preincubation, read-out: Ki (μM) Pituitary Proteasome, ChT-L component. The source says:
(§1) To investigate the possibility that inhibitors specific for the immunoproteasome could be identified, the proteasome from pituitary tissue, representative of the X/Y/Z isoform (i.e., the constitutive proteasome), and the proteasome from spleen tissue, representative of the LMP-2/7/10 isoform (i.e., the immunoproteasome), were each purified to homogeneity. A panel of peptidyl-aldehyde substrate-related inhibitors were then screened for their ability to inhibit the chymotrypsin-like (ChT-L) and branched chain amino acid preferring (BrAAP) activities of these two proteasome preparations.
[…] Determinations were carried out at three substrate concentrations and at six different inhibitor concentrations without preincubation of the enzyme with inhibitors. Substrate concentrations were 0.1 to 0.4 mM for the BrAAP activity of the spleen, and 0.5 to 4.0 mM for the ChT-L activity, and 1.0 to 4.0 mM for all others. The substrate for the BrAAP activity was Cbz-GPALG-pAB, and Cbz-GGF-pAB for the ChT-L activity. Data are averages±standard error, with the number of determinations shown in parentheses.
[…] Determinations were carried out at three substrate concentrations and at six different inhibitor concentrations without preincubation of the enzyme with inhibitors. Substrate concentrations were 0.1 to 0.4 mM for the […] activity of the spleen, and 0.5 to 4.0 mM for the ChT-L activity, and 1.0 to 4.0 mM for all others. The substrate for the BrAAP activity was Cbz-GPALG-pAB, and Cbz-GGF-pAB for the ChT-L activity. Data are averages±standard error, with the number of determinations shown in parentheses. † indicates IC50 instead of Ki. NI indicates no inhibition in the tested range.
[…] Determinations were carried out at three substrate concentrations and at six different inhibitor concentrations without preincubation of the enzyme with inhibitors. Substrate concentrations were 0.1 to 0.4 mM for the BrAAP activity of the spleen, and 0.5 to 4.0 mM for the ChT-L activity, and 1.0 to 4.0 mM for all others. The substrate for the BrAAP activity was Cbz-GPALG-pAB, and Cbz-GGF-pAB for the ChT-L activity. Data are averages±standard error, with the number of determinations shown in parentheses. † indicates IC50 instead of Ki. NI indicates no inhibition in the tested range.

Assay [2] concerns the target T2, proteasome from spleen tissue (LMP-2/7/10 isoform, immunoproteasome), chymotrypsin-like (ChT-L) activity (UniProt Q3T112).
T2 construct: Ki (μM) Spleen Proteasome, ChT-L component; other: substrate Cbz-GGF-pAB, Dixon plots, without preincubation; other: substrate Cbz-GGF-pAB
T2 sequence (Q3T112 1-276): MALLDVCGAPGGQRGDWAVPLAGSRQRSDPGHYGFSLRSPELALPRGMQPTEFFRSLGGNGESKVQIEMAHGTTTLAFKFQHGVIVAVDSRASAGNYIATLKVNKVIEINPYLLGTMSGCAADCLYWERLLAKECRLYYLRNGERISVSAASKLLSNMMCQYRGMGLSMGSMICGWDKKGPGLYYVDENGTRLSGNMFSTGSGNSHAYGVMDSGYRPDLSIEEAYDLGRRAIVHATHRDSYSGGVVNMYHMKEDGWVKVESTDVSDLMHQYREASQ
As to the kind of experiment: Inhibition of ChT-L activity of spleen proteasome (immunoproteasome). The assay is classed as biochemical.
Source text: as §1, with “preparations. […] The same was true for Cbz-FL-CHO, the peptide aldehyde version of bortezomib.” for “preparations.”
(§2) Dixon plots were used to obtain Ki values. Determinations were carried out at three substrate concentrations and at six different inhibitor concentrations without preincubation of the enzyme with inhibitors. Substrate concentrations were 0.1 to 0.4 mM for the BrAAP activity of the spleen, and 0.5 to 4.0 mM for the ChT-L activity, and 1.0 to 4.0 mM for all others. The substrate for the BrAAP activity was Cbz-GPALG-pAB, and Cbz-GGF-pAB for the ChT-L activity. Data are averages±standard error, with the number of determinations shown in parentheses.
(§3) Dixon plots were used to obtain Ki values. Determinations were carried out at three substrate concentrations and at six different inhibitor concentrations without preincubation of the enzyme with inhibitors. Substrate concentrations were 0.1 to 0.4 mM for the BrMP activity of the spleen, and 0.5 to 4.0 mM for the ChT-L activity, and 1.0 to 4.0 mM for all others. The substrate for the BrAAP activity was Cbz-GPALG-pAB, and Cbz-GGF-pAB for the ChT-L activity. Data are averages±standard error, with the number of determinations shown in parentheses. † indicates IC50 instead of Ki. NI indicates no inhibition in the tested range.
as §3, with “BrAAP” for “BrMP”

Assay [3] deals with NCI-H929 human myeloma cells. The assay is described as follows: Proteasome inhibitor-induced apoptosis, ELISA of apoptotic nuclear DNA fragmentation. Conditions: 18 hours. It is filed as cell-based. How it is done: (§4) Cultured NCI-H929 human myeloma cells, IM-9 human B-lymphoblasts, HPAC human pancreatic adenocarcinoma cells, and Hs 294T human melanoma cells were exposed to vehicle, 5 nM bortezomib (PS-341), or 50 μM Cbz-LnL-CHO for 18 hours. Apoptosis was evaluated using an enzyme-linked immunosorbent assay that detects apoptotic nuclear DNA fragmentation. Cell death is expressed as the fold-increase in apoptosis over the vehicle control, which was arbitrarily set at 1.0. Referring now to FIG. 2, the effect of PS-341 is shown in the open bar graphs, while Cbz-LnL-CHO (IPSI-001) is in the stippled bar graphs. The mean and standard error of the mean are shown for each condition from four independent experiments.
Background: An ELISA detects its analyte on a solid surface through an enzyme-linked reagent.

The test system of assay [4] is IM-9 human B-lymphoblasts. The description is as above. It is filed as cell-based. Conditions: 18 hours. How it is done: as §4
Assay [5] concerns proteasome from spleen tissue (LMP-2/7/10 isoform, immunoproteasome), branched chain amino acid preferring (BrAAP) activity. As to the kind of experiment: Inhibition of BrAAP activity of spleen proteasome (immunoproteasome). It is filed as biochemical. Conditions: spleen versus pituitary proteasome, in vitro.
Source text: as §1, with “preparations. […] The same was true for Cbz-FL-CHO, the peptide aldehyde version of bortezomib.” for “preparations.”
as §2
Dixon plots were used to obtain Ki values. […]

Assay [6] concerns proteasome from spleen tissue (LMP-2/7/10 isoform, immunoproteasome), chymotrypsin-like (ChT-L) activity. As to the kind of experiment: Inhibition of ChT-L activity of spleen proteasome (immunoproteasome). The assay is classed as biochemical. Conditions: spleen versus pituitary proteasome, in vitro.
Source text: as §1, with “preparations. […] The same was true for Cbz-FL-CHO, the peptide aldehyde version of bortezomib.” for “preparations.”
as §2, §3
as §3, with “BrAAP” for “BrMP”

For assay [7], the system named is HPAC human pancreatic adenocarcinoma cells. The assay is described as follows: Proteasome inhibitor-induced apoptosis, ELISA of apoptotic nuclear DNA fragmentation. The assay is classed as cell-based. Conditions: 5 nM, 18 hours. How it is done: as §4
Assay [8] relates to Hs 294T human melanoma cells. The assay is described as above. The assay is classed as cell-based. Conditions: 5 nM, 18 hours. As to the method:
as §4

In another assay the test system is myeloma. Conditions: phase II study that led to FDA approval; cited from earlier work.
Where [9] appears, read: read-out: Ki (μM) Spleen Proteasome, ChT-L component; substrate Cbz-GGF-pAB, Dixon plots, without preincubation.
The mark [10] stands for this setting: substrate Cbz-GGF-pAB, Dixon plots, without preincubation; read-out: Ki (μM) Spleen Proteasome, ChT-L component.

As to `O=CC(Cc1ccccc1)NC(=O)C(Cc1ccccc1)NC(=O)CNC(=O)OCc1ccccc1` (stereo not drawn) [Cbz-GFF-CHO, N-carbobenzyloxy-glycyl-phenylalanyl-phenylalanylal] (Cbz-Gly-Phe-Phe-aldehyde; configuration not given here), the IC50 – broadly, the concentration needed to halve the response being measured – in assay [1] worked out at 2.7 µM; in assay [2] (read-out: IC50 instead of Ki (†), Spleen Proteasome, ChT-L component; substrate Cbz-GGF-pAB), 1.03 µM.
For `CC(NC(=O)C1CCCN1C(=O)CNC(=O)OCc1ccccc1)C(=O)NC(C=O)Cc1ccccc1` (stereo not drawn) [Cbz-GPAF-CHO, N-carbobenzyloxy-glycyl-prolyl-alanyl-phenylalanylal] (Cbz-GPAF-aldehyde; configuration not given here), the values for the Ki in assay [1] and in assay [2] (setting [9]) were 460 ± 66 µM and 8.4 ± 0.52 µM, respectively.
Turning to `CC(C)CC(C=O)NC(=O)C(Cc1ccccc1)NC(=O)OCc1ccccc1` (stereo not drawn) [Cbz-FL-CHO, reference compound] (Cbz-Phe-Leu-aldehyde; configuration not given here), the inhibitory constant (Ki) (as a rule, a measure of affinity in units of concentration, obtained from inhibition or displacement) in assay [1] amounted to 5.55 ± 0.47 µM; in [2] (setting [10]), 2.1 ± 0.29 µM.
For `CCCCC(C=O)NC(=O)C(CC(C)C)NC(=O)OCc1ccccc1` (stereo not drawn) [Cbz-LnL-CHO, N-carbobenzyloxy-leucyl-norleucinal], the “induction of apoptosis (fold-increase over the vehicle control)” value is on record as “induces significant apoptosis” in [3] (NCI-H929, 50 μM) and “induces significant apoptosis” in [4] (IM-9, 50 μM). The Ki stood at 105 ± 1.3 µM in [1] and 1.03 ± 0.17 µM in assay [2] (setting [10]). The “preference for the LMP-containing BrAAP proteasome activity” value in assay [5] is recorded as “greater than 160 fold”. In addition, the “preference for the LMP-containing ChT-L proteasome activity” value in assay [6] was “greater than 100 fold”.
Take `CC(C)CC(NC(=O)OCc1ccccc1)C(=O)NC(C=O)Cc1ccccc1` (stereo not drawn) [Cbz-LF-CHO, N-carbobenzyloxy-leucyl-phenylalanylal] (Cbz-Leu-Phe-aldehyde; configuration not given here): the IC50 in assay [1] worked out at 154 µM. The Ki in assay [2] (setting [10]) was found to be 5.6 ± 0.2 µM.
With `CC(C)C[C@H](NC(=O)[C@H](Cc1ccccc1)NC(=O)c1cnccn1)B(O)O` [Bortezomib, reference compound], the “induction of apoptosis (fold-increase over the vehicle control)” value is listed as “induces apoptosis roughly equally in all of the cell lines tested” in assay [7]; “induces apoptosis roughly equally in all of the cell lines tested” in assay [3] (NCI-H929, 5 nM); “induces apoptosis roughly equally in all of the cell lines tested” in assay [8]; “induces apoptosis roughly equally in all of the cell lines tested” in assay [4] (IM-9, 5 nM). Further, the “patients with myeloma with partial responses or better” value with myeloma is 28%.
Take `CC(C)CC(NC(=O)OCc1ccccc1)C(=O)NC(CC(C)C)C(=O)NC(C=O)Cc1ccccc1` (stereo not drawn) [Cbz-LLF-CHO, N-carbobenzyloxy-leucyl-leucyl-phenylalanylal] (Cbz-Leu-Leu-Phe-aldehyde; configuration not given here): the values for the Ki in assay [1] and in assay [2] (setting [9]) were 1.6 ± 0.5 µM and 5.97 ± 1.4 µM, respectively.
In the case of `O=CC(Cc1ccccc1)NC(=O)C(Cc1ccccc1)NC(=O)OCc1ccccc1` (stereo not drawn) [Cbz-FF-CHO, N-carbobenzyloxy-phenylalanyl-phenylalanylal] (Cbz-Phe-Phe-aldehyde; configuration not given here), the Ki stood at 56 ± 4.4 µM in assay [1] and 4 ± 0.27 µM in [2] (setting [10]).
For `CC(NC(=O)OCc1ccccc1)C(=O)NC(C=O)Cc1ccccc1` (stereo not drawn) [Cbz-AF-CHO, N-carbobenzyloxy-alanyl-phenylalanylal], the IC50 came out at 380 µM in assay [1] and 24 µM in assay [2] (substrate Cbz-GGF-pAB; read-out: IC50 instead of Ki (†), Spleen Proteasome, ChT-L component).
`O=CC(Cc1ccccc1)NC(=O)C(Cc1ccccc1)NC(=O)C1CCCN1C(=O)CNC(=O)OCc1ccccc1` (stereo not drawn) [Cbz-GPFF-CHO, N-carbobenzyloxy-glycyl-prolyl-phenylalanyl-phenylalanylal] (Cbz-GPFF-aldehyde; configuration not given here): the Ki in [1] came to 58 ± 1.8 µM; in assay [2] (setting [9]) it was 5.6 ± 1.1 µM.
Take `CC(C)C[C@@H](C=O)NC(=O)[C@H](CC(C)C)NC(=O)[C@H](CC(C)C)NC(=O)OCc1ccccc1` [Cbz-LLL-CHO, reference compound] (Cbz-Leu-Leu-Leu-aldehyde): the Ki turned out to be 6.9 ± 0.84 µM in assay [1] and 5.1 ± 0.9 µM in assay [2] (setting [10]).
Take `CC(C)CC(C=O)NC(=O)C(C)NC(=O)C(CC(C)C)NC(=O)OCc1ccccc1` (stereo not drawn) [Cbz-LAL-CHO, reference compound] (Cbz-Leu-Ala-Leu-aldehyde; configuration not given here): the Ki turned out to be 0.82 ± 0.15 µM in assay [1] and 1.45 ± 1.05 µM in assay [2] (setting [10]).
In the case of `O=CC(Cc1ccccc1)NC(=O)C(CCc1ccccc1)NC(=O)OCc1ccccc1` (stereo not drawn) [Cbz-hFF-CHO, N-carbobenzyloxy-homophenylalanyl-phenylalanylal] (Cbz-[hPhe]-Phe-aldehyde; configuration not given here), the IC50 in assay [1] worked out at 40 µM. In addition, the Ki in assay [2] (setting [10]) turned out to be 2.74 ± 0.33 µM.
